pEC50, pIC50: −log10 of the molar value. Counter-ions that a name gives are not always drawn.
Experiments:
[1] = target: T1, 20S Human Erythrocyte Proteasome (HEP) (Homo sapiens, UniProt P20618+P28074); assay: Chymotrypsin-like activity of 20S Human Erythrocyte Proteasome (HEP), IC50 determination; type: biochemical; settings: assay of Example C, inhibition of HEP
T1 construct: 20S Human Erythrocyte Proteasome (HEP), purchased from Immatics Biotechnologies Inc; purchased Immatics Biotechnologies Inc., Tübingen, Germany; host or cells: human erythrocytes (natural source)
Outline: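 20S proteasome at 0.2 μg/mL (about 0.6 nM catalytic sites) in 20 mM Tris with 0.04% SDS, preincubated 15 min at 37° C with inhibitor before Suc-LLVY-AMC (100 μM final). AMC fluorescence read in the linear range; triplicates, IC50 from concentration series.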

[2] = target: T2, proteasome in Molt-4 cells (human leukemia) (Homo sapiens, UniProt P20618+P28074); type: cell-based; settings: assay of Example E, inhibition of MOLT4; read-out: MOLT4 (EC50)
T2 sequence (P28074 60-263): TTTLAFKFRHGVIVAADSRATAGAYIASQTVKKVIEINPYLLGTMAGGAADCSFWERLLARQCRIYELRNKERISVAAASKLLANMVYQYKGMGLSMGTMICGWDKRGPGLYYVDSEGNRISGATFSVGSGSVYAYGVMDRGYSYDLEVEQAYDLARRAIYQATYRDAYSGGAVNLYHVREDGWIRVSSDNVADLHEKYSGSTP
T2 sequence (P20618 29-241): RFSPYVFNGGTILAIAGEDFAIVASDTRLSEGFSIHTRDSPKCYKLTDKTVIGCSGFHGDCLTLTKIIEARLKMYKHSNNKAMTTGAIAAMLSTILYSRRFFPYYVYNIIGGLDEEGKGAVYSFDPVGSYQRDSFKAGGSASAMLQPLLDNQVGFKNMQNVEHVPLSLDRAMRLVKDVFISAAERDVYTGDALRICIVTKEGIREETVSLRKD
Outline: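 Intact Molt-4 cells (6×10^6 cells/mL) in HEPES-buffered saline were preincubated with inhibitor 15 min at 37 °C, then given cell-permeable MeOSuc-FLF-AFC at 25 μM final.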

Compound | melting point | pIC50 [1] | pEC50 [2]
CCCCc1ccc(C(=O)N[C@@H](CNC(=O)c2ccc(-n3cncn3)cc2)C(=O)N[C@@H](CC(C)C)B(O)O)cc1 (as salt: hydrochloride) [E.5.40, Boronic acid, [(1R)-1-[[(2S)-3-(4-(1H-1,2,4-triazol-1-yl)benzoylamide)]-2-[(4-butylbenzoyl)amino]-1H-oxopropyl]amino]-3-methylbutyl] hydrochloride] | 192 to 195 °C |  | 
CC(C)C[C@H](NC(=O)[C@@H](NC(=O)[C@H](CC(C)C)NC(=O)OCc1ccccc1)[C@@H](C)O)B1O[C@@H]2C[C@@H]3C[C@@H](C3(C)C)[C@]2(C)O1 [D.8.1, (2S)-2-[(Benzyloxycarbonyl)amino]-4-methylpentanamide, N-[(1S,2R)-1-[[[(1R)-1-[(3aS,4S,6S,7aR)-hexahydro-3a,5,5-trimethyl-4,6-methano-1,3,2-benzodioxaborol-2-yl]-3-methylbutyl]amino]carbonyl]-2-hydroxypropyl]-] | 38 to 40 °C |  | 
CCCCCCCCCC(=O)N[C@@H](CNC(=O)c1ccc(S(N)(=O)=O)cc1)C(=O)N[C@@H](CC(C)C)B1O[C@@H]2C[C@@H]3C[C@@H](C3(C)C)[C@]2(C)O1 [D.24.2, Decanamide, N-[(1S)-1-[[[(1R)-1-[(3aS,4S,6S,7aR)-hexahydro-3a,5,5-trimethyl-4,6-methano-1,3,2-benzodioxaborol-2-yl]-3-methylbulyl]amino]carbonyl]-2-[(4-sulfonamidophenyl)carbonyl-amido]ethyl]-] | 178 to 181 °C |  | 
CCCCc1ccc(C(=O)N[C@@H](CNC(C)=O)C(=O)N[C@@H](CC(C)C)B2O[C@@H]3C[C@@H]4C[C@@H](C4(C)C)[C@]3(C)O2)cc1 [D.24.3, 4-butylbenzamide, N-[(1S)-1-[[[(1R)-1-[(3aS,aS,6S,7aR)-hexahydro-3a,5,5-trimethyl-4,6-methano-1,3,2-benzodioxaborol-2-yl-]-3-methylbutyl]amino]carbonyl]-2-(acetamido)ethyl]-] | 133 to 135 °C | > 8.00 | > 6.70
CCCCc1ccc(C(=O)N[C@@H](CNS(C)(=O)=O)C(=O)N[C@@H](CC(C)C)B2O[C@@H]3C[C@@H]4C[C@@H](C4(C)C)[C@]3(C)O2)cc1 [D.24.4, 4-butylbenzamide, N-[(1S)-1-[[[(1R)-1-[(3aS,aS,6S,7aR)-hexahydro-3a,5,5-trimethyl-4,6-methano-1,3,2-benzodioxaborol-2-yl-]-3-methylbulyl]amino]carbonyl]-2-(methanesulfonamido)ethyl]-] | 53 to 55 °C | > 8.00 | > 6.70
CCCCc1ccc(C(=O)N[C@@H](CNS(=O)(=O)c2cn(C)cn2)C(=O)N[C@@H](CC(C)C)B2O[C@@H]3C[C@@H]4C[C@@H](C4(C)C)[C@]3(C)O2)cc1 [D.24.23, 4-butylbenzamide, N-[(1S)-1-[[[(1R)-1-[(3aS,aS,6S,7aR)-hexahydro-3a,5,5-trimethyl-4,6-methano-1,3,2-benzodioxaborol-2-yl-]-3-methylbulyl]amino]carbonyl]-2-[(1-methyl-1H-imidazole-4-)sulfonylamino]ethyl]-] | 69 to 71 °C |  | 
CCCCc1ccc(C(=O)N[C@@H](CNC(=O)C2CCN(S(C)(=O)=O)CC2)C(=O)N[C@@H](CC(C)C)B2O[C@@H]3C[C@@H]4C[C@@H](C4(C)C)[C@]3(C)O2)cc1 [D.24.36, 4-butylbenzamide, N-[(1S)-1-[[[(1R)-1-[(3aS,aS,6S,7aR)-hexahydro-3a,5,5-trimethyl-4,6-methano-1,3,2-benzodioxaborol-2-yl-]-3-methylbutyl]amino]carbonyl]-2-(1-methanesulfonyl-piperidine-4-carbonylamino)ethyl]-] | 170 to 172 °C |  | 
CCCCc1ccc(C(=O)N[C@@H](CNC(=O)Cc2ccc(OC)c(OC)c2)C(=O)N[C@@H](CC(C)C)B(O)O)cc1 [E.5.15, Boronic acid, [(1R)-1-[[(2S)-3-[(3,4-dimethoxyphenyl)acetylamino]-2-[(4-butylbenzoylamino)]-1-oxopropyl]amino]-3-methylbutyl]] | 150 to 152 °C |  | 
CCCCc1ccc(C(=O)N[C@@H](CNC(=O)C2CCN(S(C)(=O)=O)CC2)C(=O)N[C@@H](CC(C)C)B(O)O)cc1 [E.5.38, Boronic acid, [(1R)-1-[[(2S)-3-(1-methanesulfonylpiperidine-4-carbonylamino)-2-[(4-butylbenzoylamino)]-1-oxopropyl]amino]-3-methylbutyl]] | 170 to 173 °C |  | 

The next lines start with the values.

melting point | pIC50 [1] | pEC50 [2] | Compound
95 to 100 °C | > 8.00 | > 6.70 | CCCCc1ccc(C(=O)N[C@@H](CNC(=O)OCc2ccccc2)C(=O)N[C@@H](CC(C)C)B2O[C@@H]3C[C@@H]4C[C@@H](C4(C)C)[C@]3(C)O2)cc1 [D.16.6]
100 to 103 °C |  |  | CC(C)C[C@H](NC(=O)[C@H](CNC(=O)OCc1ccccc1)NC(=O)c1ccc(Oc2ccccc2)cc1)B1O[C@@H]2C[C@@H]3C[C@@H](C3(C)C)[C@]2(C)O1 [D.16.9]
150 to 152 °C | > 8.00 | > 6.70 | CCCCc1ccc(C(=O)N[C@@H](CNC(=O)c2ccc(C)cc2)C(=O)N[C@@H](CC(C)C)B2O[C@@H]3C[C@@H]4C[C@@H](C4(C)C)[C@]3(C)O2)cc1 [D.24.6, 4-butylbenzamide, N-[(1S)-1-[[[(1R)-1-[(3aS,aS,6S,7aR)-hexahydro-3a,5,5-trimethyl-4,6-methano-1,3,2-benzodioxaborol-2-yl-]-3-methylbutyl]amino]carbonyl]-2-[(4-methylphenyl)carbonylamino]ethyl]-]
88 to 92 °C |  |  | CCCCc1ccc(C(=O)N[C@@H](CNC(=O)c2cccn2C)C(=O)N[C@@H](CC(C)C)B2O[C@@H]3C[C@@H]4C[C@@H](C4(C)C)[C@]3(C)O2)cc1 [D.24.13]
128 to 130 °C |  |  | CCCCc1ccc(C(=O)N[C@@H](CNC(=O)c2ccno2)C(=O)N[C@@H](CC(C)C)B2O[C@@H]3C[C@@H]4C[C@@H](C4(C)C)[C@]3(C)O2)cc1 [D.24.21, 4-butylbenzamide, N-[(1S)-1-[[[(1R)-1-[(3aS,aS,6S,7aR)-hexahydro-3a,5,5-trimethyl-4,6-methano-1,3,2-benzodioxaborol-2-yl-]-3-methylbutyl]amino]carbonyl]-2-[(1-isoxazol-5-yl)-carbonylamino]ethyl]-]
90 to 93 °C |  |  | CC(C)C[C@H](NC(=O)[C@H](CNS(=O)(=O)c1ccc(F)cc1)NC(=O)c1ccc(Oc2ccccc2)cc1)B1O[C@@H]2C[C@@H]3C[C@@H](C3(C)C)[C@]2(C)O1 [D.24.29, 4-phenoxybenzamide, N-[(1S)-1-[[[(1R)-1-[(3aS,4S,6S,7aR)-hexahydro-3a,5,5-trimethyl-4,6-methano-1,3,2-benzodioxaborol-2-yl]-3-methylbutyl]amino]carbonyl]-2-[4-fluoro-benzenesulfonammide]ethyl]-]
100 to 103 °C |  |  | Cc1cc(C(=O)NC[C@H](NC(=O)c2ccc(Oc3ccccc3)cc2)C(=O)N[C@@H](CC(C)C)B2O[C@@H]3C[C@@H]4C[C@@H](C4(C)C)[C@]3(C)O2)n(C)n1 [D.24.30, 4-phenoxybenzamide, N-[(1S)-1-[[[(1R)-1-[(3aS,aS,6S,7aR)-hexahydro-3a,5,5-trimethyl-4,6-methano-1,3,2-benzodioxaborol-2-yl-]-3-methylbutyl]amino]carbonyl]-2-[(2,5-dimethyl-2H-pyrazole)carbonylamino]ethyl]-]
150 to 152 °C |  |  | CC(C)C[C@H](NC(=O)[C@H](CNC(=O)c1ccc(-c2ccccc2)cc1)NC(=O)c1ccc(Oc2ccccc2)cc1)B1O[C@@H]2C[C@@H]3C[C@@H](C3(C)C)[C@]2(C)O1 [D.24.31, 4-phenoxybenzamide, N-[(1S)-1-[[[(1R)-1-[(3aS,4S,6S,7aR)-hexahydro-3a,5,5-trimethyl-4,6-methano-1,3,2-benzodioxaborol-2-yl]-3-methylbutyl]amino]carbonyl]-2-(4-phenylbenzoylamino)ethyl]-]
195 to 198 °C |  |  | CCCCc1ccc(C(=O)N[C@@H](CNC(=O)c2ccc(-c3ccccc3)cc2)C(=O)N[C@@H](CC(C)C)B2O[C@@H]3C[C@@H]4C[C@@H](C4(C)C)[C@]3(C)O2)cc1 [D.24.32, 4-butylbenzamide, N-[(1S)-1-[[[(1R)-1-[(3aS,4S,6S,7aR)-hexahydro-3a,5,5-trimethyl-4,6-methano-1,3,2-benzodioxaborol-2-yl]-3-methylbutyl]amino]carbonyl]-2-(4-phenylbenzoylamino)ethyl]-]
118 to 120 °C |  |  | CCCCc1ccc(C(=O)N[C@@H](CNC(=O)C#Cc2ccccc2)C(=O)N[C@@H](CC(C)C)B2O[C@@H]3C[C@@H]4C[C@@H](C4(C)C)[C@]3(C)O2)cc1 [D.24.33, 4-butylbenzamide, N-[(1S)-1-[[[(1R)-1-[(3aS,4S,6S,7aR)-hexahydro-3a,5,5-trimethyl-4,6-methano-1,3,2-benzodioxaborol-2-yl]-3-methylbutyl]amino]carbonyl]-2-(3-phenylpropynoylamino)ethyl]-]

— patent US8546608B2, “Proteasome inhibitors and methods of using the same” (Cephalon, Inc., priority 2003, dated 2013)
